The record followed here is patent publication US20100048400A1, “HERBICIDE COMBINATION” (BAYER CROPSCIENCE AG, priority 2007, published 2010).

Type in all cases: in vivo
What all share (settings): after four weeks, 0=no damage 100=complete damage

Experiment [1] relates to Polygonum convolvulus. The experiment in a line: Post-emergence action against weeds, Example 2: greenhouse, visual scoring of damage. On the procedure: (§1) The plant species listed below were sown in Jiffy pots and cultivated in a greenhouse at a day/night rhythm of 22° C./14° C. At the 2-4-leaf stage, the plants were then treated with an aqueous solution of the compounds in question at the stated dosages. After four weeks, the results were scored visually using the following scheme: 0=no damage 100=complete damage AS/ha=active substance/hectare

The next experiment has as its system Abutilon theophrasti. Kind of experiment: Post-emergence action against weeds, Example 3: greenhouse, visual scoring of damage. On the procedure: as §1
The subject of experiment [2] is Polygonum convolvulus. The description is as above. On the procedure: as §1
In another experiment the test system is Setaria viridis. Kind of experiment: Post-emergence action against weeds, Example 2: greenhouse, visual scoring of damage. Here is the method: as §1
The next experiment concerns Digitaria sanguinalis. The description is as above. On the procedure: as §1

With `Cc1ccc2c(c1)[C@H](Nc1nc(N)nc([C@@H](C)F)n1)[C@@H](C)C2` [Compound B-47, 2-amino-4-[(1R,2S)-2,6-dimethylindan-1-ylamino]-6-[(1R)-1-fluoroethyl]-1,3,5-triazine], the “Damage POLCO” value in the experiment on Polygonum convolvulus [1] (13 g of AS/ha), in the experiment on Polygonum convolvulus [1] (25 g of AS/ha), in the experiment with Polygonum convolvulus [2] (13 g of AS/ha) and in the experiment with Polygonum convolvulus [2] (25 g of AS/ha) was 0 in each case. The “Damage ABUTH” value in the experiment with Abutilon theophrasti (13 g of AS/ha) came out at 5; with Abutilon theophrasti (25 g of AS/ha), 15.

Consider `Cc1ccc2c(c1)[C@H](Nc1nc(N)nc([C@@H](C)F)n1)[C@H](C)C2` (racemic) [Compound B-44, 2-amino-4-[(1RS,2RS)-2,6-dimethylindan-1-ylamino]-6-[(1RS)-1-fluorethyl]-1,3,5-triazine], for which the “Damage SETVI” value with Setaria viridis (13 g of AS/ha) stood at 3; with Setaria viridis (25 g of AS/ha) it was 5.

For the compound `Cc1ccc2c(c1)[C@H](Nc1nc(N)nc([C@@H](C)F)n1)CC2` [Compound B-22, 2-amino-4-[(1R)-6-methylindan-1-ylamino]-6-[(1R)-1-fluoroethyl]-1,3,5-triazine], the “Damage DIGSA” value is 24 with Digitaria sanguinalis (13 g of AS/ha) and 55 with Digitaria sanguinalis (25 g of AS/ha).
